# Results reported in US20220144838A1, “Compounds as Inhibitors of Macrophage Migration Inhibitory Factor” (NANJING IMMUNOPHAGE BIOTECH CO., LTD., priority 2019, published 2022).
# Target: T1, MIF (Homo sapiens, UniProt P14174)
# T1 sequence (P14174 2-115 limits assumed): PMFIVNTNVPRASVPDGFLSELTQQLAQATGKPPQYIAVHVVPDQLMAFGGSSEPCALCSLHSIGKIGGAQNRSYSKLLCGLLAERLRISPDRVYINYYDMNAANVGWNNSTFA
# Test: MIF tautomerase assay using pHPP as substrate
# Format: biochemical
# Details: inhibition of the MIF enzyme in vitro; mean of multiple test results
# Protocol: Tautomerase Assay Using pHPP as Substrate
# This assay measured MIF's tautomerase activity in a cell-free system and was based on the determination of initial rates of the MIF-catalyzed conversion of the ketonic into the enolic tautomer of pHPP. This was achieved by spectrophotometric quantification of the complex between borate and the product of the reaction (enolic pHPP). The substrate was prepared by conversion of the enolic pHPP into its ketonic form. To achieve this, 0.5 M pHPP in methanol was diluted 10-fold with 50 mM sodium acetate buffer at pH 6.0, and then the suspension was shaken for 24 h at room temperature in darkness, and finally stored at 4° C. for not more than 1 week, with 5 min sonication being recommended before use.
# Assays were performed in small-volume clear-bottom black 96 or 384-well polystyrene plates (Greiner Bio-One). First, 2 μL of the enzyme solution containing 6 nM of MIF in DPBS, 0.025% w/v BSA, and 300 μM CHAPS was dispensed onto sample and negative control wells using Multidrop Combi with metallic tip cassettes (Thermo Fisher Scientific) previously treated with Sigmacote. Then, 2 μL of the same buffer without MIF was dispensed onto positive control wells. The reaction was started by addition of the following to all wells: 2 μL of substrate solution containing 3 mM ketonic pHPP in 200 mM boric acid, 25 mM sodium phosphate, 0.025% w/v BSA, and 300 μM CHAPS at pH 6.0. In order to remove bubbles, the plate was centrifuged in an Allegra 25R centrifuge (Beckman Coulter, Inc., Brea, Calif.) at 1000 rpm for 2 min at room temperature. Then, the plate was read in an EnVision. Final concentrations of enzyme and substrate were 3 nM and 1.5 mM, respectively. Initial rates were calculated for each well as the slope of the absorbance progress curve.
# All exemplified compounds (Examples 1-230) were tested in the MIF tautomerase assay or a similar assay described above. The data mentioned below represents a mean pIC50 value of multiple test results. It is understood that the data illustrated below may have reasonable variation depending on the specific conditions and procedures used by the person conducting the testing.
row,Compound,Tautomerase Inhibition pIC50
1,"4-(4-(7-(2-hydroxyethyl)-4-(indolin-1-yl)-7H-pyrrolo[2,3-d]pyrimidin-2-yl)piperazin-1-yl)phenol [Example 1]",B (B means 5.01 to 6)

# Same assay, conditions: inhibition of the MIF enzyme in vitro; mean of multiple test results; read-out: Tautomerase Inhibition pIC50 (converted)
row,IC50,Compound
1,100 to 977 nM,"Nc1nc(N2CCC(O)(c3ccc(O)cc3)CC2)nc2c1ncn2-c1cccnc1 [Example 208, 1-(6-amino-9-(pyridin-3-yl)-9H-purin-2-yl)-4-(4-hydroxyphenyl)piperidin-4-ol]"
2,100 to 977 nM,"C#CCn1cnc2c(-n3ncc4ccccc43)nc(N3CCC(O)(c4ccc(O)cc4)CC3)nc21 [Example 222, 1-(6-(1H-indazol-1-yl)-9-(prop-2-yn-1-yl)-9H-purin-2-yl)-4-(4-hydroxyphenyl)piperidin-4-ol]"
3,100 to 977 nM,"O=C(O)Cn1cnc2nc(N3CCN(c4ccc(O)cc4)CC3)nc(-n3ncc4ccccc43)c21 [Example 46, 2-(2-(4-(4-hydroxyphenyl)piperazin-1-yl)-6-(1H-indazol-1-yl)-7H-purin-7-yl)acetic acid]"
4,10 to 97.7 nM,"CC(C)(C(=O)O)n1cnc2c(-n3ncc4ccccc43)nc(N3CCN(c4ccc(O)cn4)CC3)nc21 [Example 141, 2-(2-(4-(5-hydroxypyridin-2-yl)piperazin-1-yl)-6-(1H-indazol-1-yl)-9H-purin-9-yl)-2-methylpropanoic acid]"
5,100 to 977 nM,"OCCCn1cnc2c(-n3ncc4ccccc43)nc(N3CCN(c4ccc(O)cc4)CC3)nc21 [Example 23, 4-(4-(9-(3-hydroxypropyl)-6-(1H-indazol-1-yl)-9H-purin-2-yl)piperazin-1-yl)phenol]"
6,100 to 977 nM,"Oc1ccc(N2CCN(c3nc(-n4ncc5ccccc54)c4ncn(-c5cccnc5)c4n3)CC2)cc1 [Example 12, 4-(4-(6-(1H-indazol-1-yl)-9-(pyridin-3-yl)-9H-purin-2-yl)piperazin-1-yl)phenol]"

# Continued, compound first:
row,Compound,IC50
1,"Oc1ccc(N2CCN(c3cc(-n4ncc5ccccc54)n4ncc(-c5cccnc5)c4n3)CC2)cc1 [Example 14, 4-(4-(7-(1H-indazol-1-yl)-3-(pyridin-3-yl)pyrazolo[1,5-a]pyrimidin-5-yl)piperazin-1-yl)phenol]",1000 to 9770 nM
2,"Cc1nc(N2CCN(c3ccc(O)cc3)CC2)nc2c1ncn2-c1cccc(Cl)c1 [Example 65, 4-(4-(9-(3-chlorophenyl)-6-methyl-9H-purin-2-yl)piperazin-1-yl)phenol]",1000 to 9770 nM
3,"O=C(O)Cn1cnc2nc(N3CCN(c4ccc(O)cn4)CC3)nc(-n3ncc4ccccc43)c21 [Example 22, 2-(2-(4-(5-hydroxypyridin-2-yl)piperazin-1-yl)-6-(1H-indazol-1-yl)-7H-purin-7-yl)acetic acid]",1000 to 9770 nM
4,"Cc1nc(N2CCN(c3ccc(O)cc3)CC2)nc2c1ncn2C(CO)CO [Example 110, 2-(2-(4-(4-hydroxyphenyl)piperazin-1-yl)-6-methyl-9H-purin-9-yl)propane-1,3-diol]",> 10000 nM
5,"COc1cccc2c1cnn2-c1nc(N2CCN(c3ccc(O)cc3)CC2)nc2c1ncn2CC(=O)O [Example 107, 2-(6-(4-methoxy-1H-indazol-1-yl)-2-(4-(4-hydroxyphenyl)piperazin-1-yl)-9H-purin-9-yl)acetic acid]",10 to 97.7 nM
6,"O=C1CN(c2nc(N3CCN(c4ccc(O)cc4)CC3)nc3c2ncn3-c2ccncc2)CCN1 [Example 174, 4-(2-(4-(4-hydroxyphenyl)piperazin-1-yl)-9-(pyridin-4-yl)-9H-purin-6-yl)piperazin-2-one]",10 to 97.7 nM
7,"OCC(CO)Nc1nc(N2CCN(c3ccc(O)cc3)CC2)nc2c1ncn2-c1ccncc1 [Example 173, 2-((2-(4-(4-hydroxyphenyl)piperazin-1-yl)-9-(pyridin-4-yl)-9H-purin-6-yl)amino)propane-1,3-diol]",10 to 97.7 nM
8,"Cc1cncc(-n2cnc3c(N)nc(N4CCN(c5ccc(O)cc5)CC4)nc32)c1 [Example 68, 4-(4-(6-amino-9-(5-methylpyridin-3-yl)-9H-purin-2-yl)piperazin-1-yl)phenol]",> 10000 nM
